Results as given in patent US10335503B2, “Compound that specifically binds to AMPA receptor” (Public University Corporation Yokohama City University, priority 2015, dated 2019).

How the values were obtained:
[1] = LC-MS/MS experiment: accumulation of compound in hippocampal tissue; format: in vivo; conditions: rat, 15 minutes from administration, compared among five compounds (FIG. 1)
Experimental: (§1) In the LC-MS/MS experiment, all of the synthesized compounds were dissolved in 100% DMSO so as to have a concentration of 2.5 mM, diluted with physiological saline water immediately before administration (PEPA (1.2 pmol/g), M-1 (12 pmol/g), K-2 (12 pmol/g), M-3 (60 pmol/g), and M-2 (240 pmol/g)), and administered by the parenteral route. In the electrophysiological experiment, PEPA and K-2 were dissolved in 100% DMSO so as to have a concentration of 150 mM, diluted with ACSF as a reflux liquid immediately before the experiment so as to have a concentration of 150 μM and then used. […]
The LC-MS/MS experiment and the biochemical experiment were performed after a rat was allowed to get to sleep by inhalation of isoflurane while anesthesia was maintained using a dedicate carburetor at a concentration of 1.5%. […] In the LC-MS/MS experiment, the hippocampus region was collected in a thickness of approximately 2 mm from the extracted whole brain using Brain matrix (ASI instruments, U.S.), the tissue weight thereof was measured, and then the hippocampus region was put into a 1.5-ml conical tube. […]
As for the preliminary reviewing of measurement conditions, an optimal dilution solvent and an optimal dilution magnification for each compound were determined using the hippocampal tissue (Table 4). […]

AMPA receptor [2] = assay: Electrophysiological experiment: AMPA current by whole-cell recording in acute hippocampus section; format: cell-based, rat; conditions: 150 μM in ACSF for 15 minutes, CA1 pyramidal cell, ground state converted as 1
Experimental: as §1
A 7- to 8-week-old male SD rat was used. […] The section was left to stand still in ACSF at room temperature for 60 minutes, and then the AMPA current was measured by a whole-cell recording method. 100 μM of picrotoxin and 100 μM of DL-APV were administered under the condition that the ACSF was refluxed at a rate of 3 ml/min, and then only the AMPA current was isolated and measured.
The recording electrode was placed on a pyramidal cell in CA1, and the exciting electrode was placed on the Schaffer fiber separated away from the recording cell by 100 to 200 μm. […] The AMPA current in the ground state was recorded for 5 minutes, reflux was thereafter performed using ACSF added with PEPA or K-2 for 15 minutes, and then the AMPA current was recorded in the reflux liquid not containing PEPA or K-2 for 30 minutes. […]

α2C-Adrenergic = α2C-Adrenergic (Homo sapiens, UniProt P18825); assay: Receptor binding panel: α2C-Adrenergic; conditions: Positive substance, concentration not given
Chain of α2C-Adrenergic (P18825 whole entry): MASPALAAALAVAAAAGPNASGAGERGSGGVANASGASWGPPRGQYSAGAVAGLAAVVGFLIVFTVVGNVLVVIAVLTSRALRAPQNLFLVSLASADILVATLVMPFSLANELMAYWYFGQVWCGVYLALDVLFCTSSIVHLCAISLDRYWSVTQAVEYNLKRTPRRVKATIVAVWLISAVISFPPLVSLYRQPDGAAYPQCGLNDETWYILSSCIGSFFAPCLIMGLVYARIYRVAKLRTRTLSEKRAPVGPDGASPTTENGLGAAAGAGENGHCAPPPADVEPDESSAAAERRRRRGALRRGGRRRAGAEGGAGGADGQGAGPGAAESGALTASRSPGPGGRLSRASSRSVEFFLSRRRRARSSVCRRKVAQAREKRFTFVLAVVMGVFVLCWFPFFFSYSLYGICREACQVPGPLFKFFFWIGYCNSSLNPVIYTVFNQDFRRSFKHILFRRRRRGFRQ

α2A-Adrenergic = α2A-Adrenergic (Homo sapiens, UniProt P08913); assay: Receptor binding panel: α2A-Adrenergic; conditions: Positive substance, concentration not given
Chain of α2A-Adrenergic (P08913 whole entry): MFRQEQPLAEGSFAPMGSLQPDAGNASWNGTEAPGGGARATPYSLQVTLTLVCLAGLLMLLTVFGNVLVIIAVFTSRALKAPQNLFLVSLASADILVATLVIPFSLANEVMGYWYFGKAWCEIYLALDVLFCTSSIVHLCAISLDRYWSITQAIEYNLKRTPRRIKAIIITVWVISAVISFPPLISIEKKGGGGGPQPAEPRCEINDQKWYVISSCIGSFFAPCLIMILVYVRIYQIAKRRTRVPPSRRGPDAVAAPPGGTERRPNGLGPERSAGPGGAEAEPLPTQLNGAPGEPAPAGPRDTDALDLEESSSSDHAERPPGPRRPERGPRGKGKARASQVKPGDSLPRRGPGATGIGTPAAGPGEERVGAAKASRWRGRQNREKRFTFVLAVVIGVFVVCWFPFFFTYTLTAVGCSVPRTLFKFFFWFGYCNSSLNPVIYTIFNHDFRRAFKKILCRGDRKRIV

[3] = system: AMPA receptors (GluA1 to 3); assay: In vivo PET imaging of rat with shRNA against GluA1 to 3 in left striatum, scramble RNA in right striatum; conditions: seven rats, shRNA side vs scramble side of striatum
Experimental: The PET imaging was performed using micro PET (Focus 220; Siemens Medical Solution). PET imaging experiment using a rat: After the rat was allowed to get to sleep by isoflurane (DS Pharma Animal Health Co., Ltd., Japan), anesthesia was maintained at an isoflurane concentration of 1.5% (air 2 L/min), and then the intravenous line was secured from the tail vein by a 24G Surflo indwelling needle (TERUMO CORPORATION, Japan). The rat was fixed to the PET imaging base, and then radiation imaging for checking the position was performed before imaging. Thereafter, 50% DMSO or K-2 dissolved in 50% DMSO was administered by the parenteral route, and after 3 minutes from administration, the radio-labeled K-2 (about 4 MBq) was administered. […]
A summation image was constructed and offset was removed therefrom with a 0.5-mm Hanning filter so as to reconstruct a dynamic image. The reconstructed image was analyzed using PMOD image analysis software (PMOD technologies) by combining VOIs including a plurality of regions of the striatum, the hippocampus, the cerebellum, the brain stem, and the like with a region formed on the template MRI image. The calculation value used in quantitative determination was % SUV (% of standardized uptake value) and obtained by the following formula; % SUV=amount of radiation of each tissue surrounded by VOI (MBq)/administered amount of radiation (MBq)×weight (g) […]

AMPA receptor [4] = assay: In vivo PET imaging using rat, with blocking by non-radio-labeled K-2
Experimental: as §1
The PET imaging was performed using micro PET (Focus 220; Siemens Medical Solution). PET imaging experiment using a rat: After the rat was allowed to get to sleep by isoflurane (DS Pharma Animal Health Co., Ltd., Japan), anesthesia was maintained at an isoflurane concentration of 1.5% (air 2 L/min), and then the intravenous line was secured from the tail vein by a 24G Surflo indwelling needle (TERUMO CORPORATION, Japan). The rat was fixed to the PET imaging base, and then radiation imaging for checking the position was performed before imaging. Thereafter, 50% DMSO or K-2 dissolved in 50% DMSO was administered by the parenteral route, and after 3 minutes from administration, the radio-labeled K-2 (about 4 MBq) was administered. During the PET imaging, the body temperature was maintained to 37±0.5° C. using a feedback type heating plate (BWT-100A; Bio Research Center, Japan). After the imaging, the intravenous line was removed, the administration of isoflurane was stopped, and then the rat was removed from the PET imaging base and returned to the home cage. The rat was raised in the room in which imaging was performed during 1 week after the imaging, and then the rat was returned to the normal rat group rearing room.
A summation image was constructed and offset was removed therefrom with a 0.5-mm Hanning filter so as to reconstruct a dynamic image. The reconstructed image was analyzed using PMOD image analysis software (PMOD technologies) by combining VOIs including a plurality of regions of the striatum, the hippocampus, the cerebellum, the brain stem, and the like with a region formed on the template MRI image. The calculation value used in quantitative determination was % SUV (% of standardized uptake value) and obtained by the following formula; % SUV=amount of radiation of each tissue surrounded by VOI (MBq)/administered amount of radiation (MBq)×weight (g)

## NC(=O)COc1c(F)cc(SCCNS(=O)(=O)c2ccccc2)cc1F [PEPA, 2-[2,6-Difluoro-4-({2-[(phenylsulfonyl)amino]ethyl}thio)phenoxy]acetamide, reference compound]
[1]
  accumulation of compound in hippocampal tissue: highest
AMPA receptor [2]
  ratio of AMPA current to reference value: 2.4±0.13

## COC(=O)[C@H]1[C@H]2C[C@H]3c4[nH]c5ccccc5c4CCN3C[C@H]2CC[C@@H]1O [Rauwolscine, reference compound]
α2C-Adrenergic
  Inhibition (%): 100.00%
α2A-Adrenergic
  Inhibition (%): 100.00%

## [11CH3]N(CCSc1cc(F)c(OCC(N)=O)c(F)c1)S(=O)(=O)c1ccccc1 [Radio-labeled K-2, {4-[2-(Benzenesulfonyl-[^11C]Methyl-Amino)-Ethylsulfanil]-2,6-Difluoro-Phenoxy}-Acetamide]
[3]
  decrease in the PET image value at the shRNA side: about 30%
AMPA receptor [4]; Logan Plot method, blocking using the non-radio-labeled K-2, striatum and hippocampus
  BPnd (estimated binding potential): significantly lowered
AMPA receptor [4]; blocking by non-radio-labeled K-2
  uptake of the brain stem: not changed by blocking
AMPA receptor [4]; prior administration of 0.05 mg/kg of non-radio-labeled K-2, compared to 0.5 mg/kg
  degree of loss of specific binding after blocking: small
AMPA receptor [4]; prior administration of 0.5 mg/kg of non-radio-labeled K-2, 3 minutes before
  specific accumulation of radio-labeled K-2 after blocking: lost
AMPA receptor [4]; rat, PET, about 4 MBq
  brain uptake: extremely high brain uptake
